Laboratory results reported in US10016406B2, “Indazole inhibitors of the WNT signal pathway and therapeutic uses thereof” (Samumed, LLC, priority 2009, dated 2018).

Tested on: Wnt
Experiment: Wnt reporter screening assay: SW480 cells stably transduced with SP5 promoter-firefly luciferase lentiviral construct
Assay type: cell-based
Conditions: Homo sapiens, SW480 colon cancer cells, 24 h after compound addition, normalized to DMSO, read-out: Wnt inhibition, IC50
Excerpt: Another screening assay for Wnt activity is described as follows. Reporter cell lines can be generated by stably transducing cells of cancer cell lines (e.g., colon cancer) with a lentiviral construct that include a wnt-responsive promoter driving expression of the firefly luciferase gene.
Lentiviral constructs can be made in which the SP5 promoter, a promoter having eight TCF/LEF binding sites derived from the SP5 promoter, is linked upstream of the firefly luciferase gene. The lentiviral constructs can also include a hygromycin resistance gene as a selectable marker. The SP5 promoter construct can be used to transduce SW480 cells, a colon cancer cell line having a mutated APC gene that generates a truncated APC protein, leading to de-regulated accumulation of β-catenin.
Cultured SW480 cells bearing a reporter construct can be distributed at approximately 10,000 cells per well into 384 well multiwell plates. Compounds from a small molecule compound library can then be added to the wells in half-log dilutions using a three micromolar top concentration. A series of control wells for each cell type receive only buffer and compound solvent. Twenty-four hours after the addition of compound, reporter activity for luciferases can be assayed, for example, by addition of the BrightGlo luminescence reagent (Promega) and the Victor3 plate reader (Perkin Elmer). Readings can be normalized to DMSO only treated cells, and normalized activities can then be used in the IC50 calculations.

Structure (SMILES)	IC50 [µM]
CC(C)(C)C(=O)Nc1cncc(-c2ccc3[nH]nc(-c4nc5c(-c6cccnc6)cncc5[nH]4)c3c2)c1 [Compound 17, N-(5-(3-(7-(pyridin-3-yl)-3H-imidazo[4,5-c]pyridin-2-yl)-1H-indazol-5-yl)pyridin-3-yl)pivalamide]	0.032 to 0.05
O=C(Nc1cncc(-c2ccc3[nH]nc(-c4nc5c(-c6cccnc6)cncc5[nH]4)c3c2)c1)C1CCC1 [Compound 21, N-(5-(3-(7-(pyridin-3-yl)-3H-imidazo[4,5-c]pyridin-2-yl)-1H-indazol-5-yl)pyridin-3-yl)cyclobutanecarboxamide]	0.029
O=C(Nc1cncc(-c2ccc3[nH]nc(-c4nc5c(-c6cccnc6)cncc5[nH]4)c3c2)c1)C1CC1 [Compound 12, N-(5-(3-(7-(pyridin-3-yl)-3H-imidazo[4,5-c]pyridin-2-yl)-1H-indazol-5-yl)pyridin-3-yl)cyclopropanecarboxamide]	0.026 to 0.035
CCC(=O)Nc1cncc(-c2ccc3[nH]nc(-c4nc5c(-c6cccnc6)cncc5[nH]4)c3c2)c1 [Compound 4, N-(5-(3-(7-(pyridin-3-yl)-3H-imidazo[4,5-c]pyridin-2-yl)-1H-indazol-5-yl)pyridin-3-yl)propionamide]	0.029 to 0.05
CCCC(=O)Nc1cncc(-c2ccc3[nH]nc(-c4nc5c(-c6cccnc6)cncc5[nH]4)c3c2)c1 [Compound 20, N-(5-(3-(7-(pyridin-3-yl)-3H-imidazo[4,5-c]pyridin-2-yl)-1H-indazol-5-yl)pyridin-3-yl)butyramide]	0.063
O=C(Nc1cncc(-c2ccc3[nH]nc(-c4nc5c(-c6cccnc6)cncc5[nH]4)c3c2)c1)C1CCCCC1 [Compound 19, N-(5-(3-(7-(pyridin-3-yl)-3H-imidazo[4,5-c]pyridin-2-yl)-1H-indazol-5-yl)pyridin-3-yl)cyclohexanecarboxamide]	0.086 to 0.206
O=C(NCC1CCCCC1)c1cncc(-c2ccc3[nH]nc(-c4nc5ccncc5[nH]4)c3c2)c1 [Compound 2, 5-(3-(3H-imidazo[4,5-c]pyridin-2-yl)-1H-indazol-5-yl)-N-(cyclohexylmethyl)nicotinamide]	> 10
O=C(Nc1cncc(-c2ccc3[nH]nc(-c4nc5c(-c6cccnc6)cncc5[nH]4)c3c2)c1)c1ccccc1 [Compound 16, N-(5-(3-(7-(pyridin-3-yl)-3H-imidazo[4,5-c]pyridin-2-yl)-1H-indazol-5-yl)pyridin-3-yl)benzamide]	0.38 to 1.17
O=C(NCC1CC1)c1cncc(-c2ccc3[nH]nc(-c4nc5c(-c6cccnc6)cncc5[nH]4)c3c2)c1 [Compound 3, N-(cyclopropylmethyl)-5-(3-(7-(pyridin-3-yl)-3H-imidazo[4,5-c]pyridin-2-yl)-1H-indazol-5-yl)nicotinamide]	> 10
CC(C)C(=O)Nc1cncc(-c2ccc3[nH]nc(-c4nc5c(-c6cccnc6)cncc5[nH]4)c3c2)c1 [Compound 11, N-(5-(3-(7-(pyridin-3-yl)-3H-imidazo[4,5-c]pyridin-2-yl)-1H-indazol-5-yl)pyridin-3-yl)isobutyramide]	0.004
CC(C)CC(=O)Nc1cncc(-c2ccc3[nH]nc(-c4nc5c(-c6cccnc6)cncc5[nH]4)c3c2)c1 [Compound 15, 3-methyl-N-(5-(3-(7-(pyridin-3-yl)-3H-imidazo[4,5-c]pyridin-2-yl)-1H-indazol-5-yl)pyridin-3-yl)butanamide]	0.0056
CCCCC(=O)Nc1cncc(-c2ccc3[nH]nc(-c4nc5c(-c6cccnc6)cncc5[nH]4)c3c2)c1 [Compound 23, N-(5-(3-(7-(pyridin-3-yl)-3H-imidazo[4,5-c]pyridin-2-yl)-1H-indazol-5-yl)pyridin-3-yl)pentanamide]	0.034 to 0.064
CC(C)(C)CC(=O)Nc1cncc(-c2ccc3[nH]nc(-c4nc5c(-c6cccnc6)cncc5[nH]4)c3c2)c1 [Compound 18, 3,3-dimethyl-N-(5-(3-(7-(pyridin-3-yl)-3H-imidazo[4,5-c]pyridin-2-yl)-1H-indazol-5-yl)pyridin-3-yl)butanamide]	0.021 to 0.039
O=C(NC1CCNCC1)c1cncc(-c2ccc3[nH]nc(-c4nc5ccncc5[nH]4)c3c2)c1 [Compound 1, 5-(3-(3H-imidazo[4,5-c]pyridin-2-yl)-1H-indazol-5-yl)-N-(piperidin-4-yl)nicotinamide]	> 10
